Source: paper PMC6115404 (2018)

Test system: bcl2Mid (DNA, G4) GGGCGCGGGAGGAATTGGGCGGG
Test: native PAGE
Conditions: K+ (25 mM K-phosphate, 70 mM KCl); samples pH 7.0; gel in TBE pH 8.0; higher-order assemblies at all equivalents

Q: With NCCNCCN.NCCNCCN.NCCNCCN.[Pt+2].[Pt+2].[Pt+2].c1cc(-c2ccc(N(c3ccc(-c4ccncc4)cc3)c3ccc(-c4ccncc4)cc3)cc2)ccn1 as the compound, how does the binding read?
A: yes
